Here are results for 13 compounds from ChEMBL document CHEMBL5291721, “A preclinical secondary pharmacology resource illuminates target-adverse drug reaction associations of marketed drugs” (Nat Commun, 2023).

One assay concerns the target Bile salt export pump (Homo sapiens, UniProt O95342). In kind it is functional.
In another assay the target is T1, Adenosine receptor A3 (Homo sapiens, UniProt P0DMS8).
T1 sequence (P0DMS8 whole entry): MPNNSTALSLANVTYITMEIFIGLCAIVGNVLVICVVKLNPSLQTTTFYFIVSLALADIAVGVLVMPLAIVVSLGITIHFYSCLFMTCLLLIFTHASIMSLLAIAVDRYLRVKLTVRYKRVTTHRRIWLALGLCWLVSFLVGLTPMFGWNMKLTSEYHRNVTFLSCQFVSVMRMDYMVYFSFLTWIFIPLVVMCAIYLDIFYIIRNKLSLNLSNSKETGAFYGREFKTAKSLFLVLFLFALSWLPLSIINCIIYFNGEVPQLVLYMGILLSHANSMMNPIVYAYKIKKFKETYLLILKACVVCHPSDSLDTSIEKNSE

Assay [1] has as its target T2, Prostaglandin G/H synthase 1 (Rattus norvegicus, UniProt Q63921).
T2 sequence (Q63921 whole entry): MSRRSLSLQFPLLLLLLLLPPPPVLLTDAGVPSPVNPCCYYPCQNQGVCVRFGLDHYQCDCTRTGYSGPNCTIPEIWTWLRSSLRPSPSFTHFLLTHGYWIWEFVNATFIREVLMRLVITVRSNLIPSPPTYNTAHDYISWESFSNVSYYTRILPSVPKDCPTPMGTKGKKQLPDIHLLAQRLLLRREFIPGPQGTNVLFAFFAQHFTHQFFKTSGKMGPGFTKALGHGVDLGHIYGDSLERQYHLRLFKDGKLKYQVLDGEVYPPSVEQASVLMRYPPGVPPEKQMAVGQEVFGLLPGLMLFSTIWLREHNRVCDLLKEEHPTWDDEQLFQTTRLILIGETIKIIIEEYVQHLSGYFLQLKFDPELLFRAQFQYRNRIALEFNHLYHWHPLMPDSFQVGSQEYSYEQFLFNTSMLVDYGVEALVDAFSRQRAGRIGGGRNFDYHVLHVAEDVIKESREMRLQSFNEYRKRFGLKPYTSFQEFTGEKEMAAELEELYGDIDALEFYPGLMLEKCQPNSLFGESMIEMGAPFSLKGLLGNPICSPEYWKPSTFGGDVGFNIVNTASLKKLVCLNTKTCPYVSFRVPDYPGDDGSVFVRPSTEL
It counts as functional.

The next assay has as its target T3, Adenosine receptor A1 (Homo sapiens, UniProt P30542).
T3 sequence (P30542 whole entry): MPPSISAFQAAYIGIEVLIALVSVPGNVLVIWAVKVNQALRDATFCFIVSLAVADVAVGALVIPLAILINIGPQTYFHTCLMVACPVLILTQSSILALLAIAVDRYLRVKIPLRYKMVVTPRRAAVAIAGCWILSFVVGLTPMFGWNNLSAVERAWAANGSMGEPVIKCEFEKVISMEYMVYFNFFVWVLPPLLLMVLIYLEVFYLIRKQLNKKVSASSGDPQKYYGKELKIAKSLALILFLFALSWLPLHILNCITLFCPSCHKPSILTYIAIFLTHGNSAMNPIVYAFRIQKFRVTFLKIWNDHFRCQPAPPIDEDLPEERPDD

In assay [2] the target is T4, Cholecystokinin receptor type A (Homo sapiens, UniProt P32238).
T4 sequence (P32238 whole entry): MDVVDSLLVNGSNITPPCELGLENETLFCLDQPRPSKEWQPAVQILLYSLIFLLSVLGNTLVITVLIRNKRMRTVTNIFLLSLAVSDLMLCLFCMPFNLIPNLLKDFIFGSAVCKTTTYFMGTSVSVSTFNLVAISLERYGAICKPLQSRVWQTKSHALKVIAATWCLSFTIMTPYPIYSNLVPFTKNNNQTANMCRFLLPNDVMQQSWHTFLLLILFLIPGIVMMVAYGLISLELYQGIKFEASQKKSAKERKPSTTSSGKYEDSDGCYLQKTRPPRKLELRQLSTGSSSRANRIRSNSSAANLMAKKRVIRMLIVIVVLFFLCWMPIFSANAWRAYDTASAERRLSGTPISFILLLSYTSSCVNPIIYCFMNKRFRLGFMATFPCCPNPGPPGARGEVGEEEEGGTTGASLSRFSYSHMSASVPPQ

The target in the next assay is Melanocortin receptor 3 (Homo sapiens, UniProt P41968).
Assay [3] addresses Neuronal acetylcholine receptor subunit alpha-4 (Homo sapiens, UniProt P43681).
The target of assay [4] is T5, Type-1 angiotensin II receptor (Homo sapiens, UniProt P30556).
T5 sequence (P30556 whole entry): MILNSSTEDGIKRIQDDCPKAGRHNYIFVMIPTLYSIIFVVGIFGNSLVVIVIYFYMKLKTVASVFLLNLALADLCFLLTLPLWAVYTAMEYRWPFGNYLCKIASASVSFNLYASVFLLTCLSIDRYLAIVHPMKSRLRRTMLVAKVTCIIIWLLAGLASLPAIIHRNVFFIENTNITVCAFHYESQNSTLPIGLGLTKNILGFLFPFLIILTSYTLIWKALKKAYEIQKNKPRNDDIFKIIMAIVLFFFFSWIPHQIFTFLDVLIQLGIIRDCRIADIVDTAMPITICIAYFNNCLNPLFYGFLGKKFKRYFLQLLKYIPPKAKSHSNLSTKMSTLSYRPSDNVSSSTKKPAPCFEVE

The target in assay [5] is T6, Muscarinic acetylcholine receptor M2 (Homo sapiens, UniProt P08172).
T6 sequence (P08172 whole entry): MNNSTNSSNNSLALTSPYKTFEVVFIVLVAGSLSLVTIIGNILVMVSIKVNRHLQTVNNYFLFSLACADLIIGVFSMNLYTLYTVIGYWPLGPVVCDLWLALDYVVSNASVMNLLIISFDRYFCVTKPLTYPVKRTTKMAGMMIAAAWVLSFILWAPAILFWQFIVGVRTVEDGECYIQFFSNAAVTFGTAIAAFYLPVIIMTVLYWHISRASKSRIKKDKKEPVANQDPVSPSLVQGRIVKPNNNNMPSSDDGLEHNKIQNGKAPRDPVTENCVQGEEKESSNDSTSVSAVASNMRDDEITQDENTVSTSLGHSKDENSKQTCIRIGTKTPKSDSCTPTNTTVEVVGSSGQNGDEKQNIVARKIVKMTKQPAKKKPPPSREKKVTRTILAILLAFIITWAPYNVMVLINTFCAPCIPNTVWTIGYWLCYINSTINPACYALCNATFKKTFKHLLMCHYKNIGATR
In kind it is functional, cell-based.

For assay [6], the target named is Gamma-aminobutyric acid receptor subunit alpha-1 (Rattus norvegicus, UniProt P62813). In kind it is functional.

Some results are limits rather than exact numbers.
Also: assay procedure not described here.

Sequence of Neuronal acetylcholine receptor subunit alpha-4 (P43681 whole entry): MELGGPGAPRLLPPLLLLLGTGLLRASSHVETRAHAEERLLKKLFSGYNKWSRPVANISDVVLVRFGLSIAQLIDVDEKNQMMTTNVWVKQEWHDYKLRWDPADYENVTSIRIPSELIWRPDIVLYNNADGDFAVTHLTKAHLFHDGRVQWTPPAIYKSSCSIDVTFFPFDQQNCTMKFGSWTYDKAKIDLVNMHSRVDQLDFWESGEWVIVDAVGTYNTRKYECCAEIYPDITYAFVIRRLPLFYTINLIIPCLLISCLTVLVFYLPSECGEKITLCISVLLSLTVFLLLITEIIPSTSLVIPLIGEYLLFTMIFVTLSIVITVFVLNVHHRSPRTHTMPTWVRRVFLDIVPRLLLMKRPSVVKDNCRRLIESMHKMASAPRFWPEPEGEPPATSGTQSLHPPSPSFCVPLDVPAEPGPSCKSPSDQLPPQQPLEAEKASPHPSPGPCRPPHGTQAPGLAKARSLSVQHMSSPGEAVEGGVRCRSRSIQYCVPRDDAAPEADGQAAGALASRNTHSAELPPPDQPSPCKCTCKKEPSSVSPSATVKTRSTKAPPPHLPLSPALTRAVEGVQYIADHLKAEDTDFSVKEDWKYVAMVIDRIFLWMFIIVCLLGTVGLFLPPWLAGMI
Sequence of Melanocortin receptor 3 (P41968 whole entry): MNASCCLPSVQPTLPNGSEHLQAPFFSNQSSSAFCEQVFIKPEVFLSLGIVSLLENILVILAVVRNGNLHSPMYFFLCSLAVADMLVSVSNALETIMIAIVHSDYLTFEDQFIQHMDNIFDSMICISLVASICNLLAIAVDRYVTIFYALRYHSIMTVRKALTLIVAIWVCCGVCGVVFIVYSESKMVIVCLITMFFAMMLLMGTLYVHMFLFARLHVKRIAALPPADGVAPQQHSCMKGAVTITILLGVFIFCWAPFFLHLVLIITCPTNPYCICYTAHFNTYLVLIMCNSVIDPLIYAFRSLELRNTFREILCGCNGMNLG
Sequence of Gamma-aminobutyric acid receptor subunit alpha-1 (P62813 whole entry): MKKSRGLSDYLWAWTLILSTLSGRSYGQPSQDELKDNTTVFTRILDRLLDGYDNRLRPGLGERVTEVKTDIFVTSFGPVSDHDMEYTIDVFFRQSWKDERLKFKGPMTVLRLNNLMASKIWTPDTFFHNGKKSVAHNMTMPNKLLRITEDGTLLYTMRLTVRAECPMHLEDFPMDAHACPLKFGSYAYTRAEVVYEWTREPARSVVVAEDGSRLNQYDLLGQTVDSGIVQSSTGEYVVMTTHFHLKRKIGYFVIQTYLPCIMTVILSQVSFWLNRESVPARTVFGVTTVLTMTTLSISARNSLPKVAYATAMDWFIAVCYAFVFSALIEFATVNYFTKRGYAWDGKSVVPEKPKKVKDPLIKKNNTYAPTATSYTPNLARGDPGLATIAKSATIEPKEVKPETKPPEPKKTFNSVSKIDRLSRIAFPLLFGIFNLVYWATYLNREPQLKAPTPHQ
Sequence of Bile salt export pump (O95342 whole entry): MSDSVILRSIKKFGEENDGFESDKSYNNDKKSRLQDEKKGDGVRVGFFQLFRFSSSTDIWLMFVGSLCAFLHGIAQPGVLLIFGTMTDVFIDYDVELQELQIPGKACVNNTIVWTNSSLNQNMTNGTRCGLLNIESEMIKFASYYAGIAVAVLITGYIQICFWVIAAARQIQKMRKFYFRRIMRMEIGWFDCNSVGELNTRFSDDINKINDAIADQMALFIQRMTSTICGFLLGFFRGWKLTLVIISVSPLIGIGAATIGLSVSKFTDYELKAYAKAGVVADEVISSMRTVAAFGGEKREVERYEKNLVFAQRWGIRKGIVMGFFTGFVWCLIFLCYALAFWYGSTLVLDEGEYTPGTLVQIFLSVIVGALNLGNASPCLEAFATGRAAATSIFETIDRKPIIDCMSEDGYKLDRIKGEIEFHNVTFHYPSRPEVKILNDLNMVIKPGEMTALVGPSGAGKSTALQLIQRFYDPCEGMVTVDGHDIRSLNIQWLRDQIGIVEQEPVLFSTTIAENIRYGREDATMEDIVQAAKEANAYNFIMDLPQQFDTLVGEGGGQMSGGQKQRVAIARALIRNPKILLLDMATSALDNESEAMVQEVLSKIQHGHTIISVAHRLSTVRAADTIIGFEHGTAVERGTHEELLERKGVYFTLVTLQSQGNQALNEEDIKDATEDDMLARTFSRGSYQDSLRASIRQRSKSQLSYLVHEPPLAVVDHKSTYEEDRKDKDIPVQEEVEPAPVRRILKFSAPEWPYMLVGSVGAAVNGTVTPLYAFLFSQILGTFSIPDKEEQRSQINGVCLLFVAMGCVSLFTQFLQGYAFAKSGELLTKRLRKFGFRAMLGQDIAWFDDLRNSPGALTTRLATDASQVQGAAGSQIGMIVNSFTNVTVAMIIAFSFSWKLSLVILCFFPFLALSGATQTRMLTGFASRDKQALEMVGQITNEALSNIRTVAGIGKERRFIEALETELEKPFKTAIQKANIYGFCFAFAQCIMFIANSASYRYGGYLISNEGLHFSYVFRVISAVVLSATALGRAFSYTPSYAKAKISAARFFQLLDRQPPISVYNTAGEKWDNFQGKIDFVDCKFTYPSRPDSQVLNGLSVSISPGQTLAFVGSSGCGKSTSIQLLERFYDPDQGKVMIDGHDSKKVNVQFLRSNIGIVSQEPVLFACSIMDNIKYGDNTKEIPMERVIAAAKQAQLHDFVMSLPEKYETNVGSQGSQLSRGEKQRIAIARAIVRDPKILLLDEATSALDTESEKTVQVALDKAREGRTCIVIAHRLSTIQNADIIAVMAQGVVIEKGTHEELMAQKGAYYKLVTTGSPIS

As for `CC(C(=O)O)c1ccc(N2CC=CC2)c(Cl)c1` (centres undefined) [PIRPROFEN], the AC50 on Bile salt export pump is 270 µM; on Adenosine receptor A3, > 30 µM; in assay [1], > 30 µM; on Adenosine receptor A1 it was > 30 µM; in assay [2], > 30 µM; on Melanocortin receptor 3, > 30 µM. The concentration at half-maximal activity (AC50) was > 10 µM in [3], > 30 µM in assay [4], > 10 µM in [5] and > 10 µM in [6].

For `COc1ccc2c(c1)C(=O)N(CCc1ccc(S(=O)(=O)NC(=O)NC3CCCCC3)cc1)C(=O)C2(C)C` [GLIQUIDONE], the AC50 is 1.7 µM at Bile salt export pump; > 30 µM at Adenosine receptor A3; > 30 µM in assay [1]; > 30 µM at Adenosine receptor A1; > 30 µM in assay [2]; > 30 µM at Melanocortin receptor 3. For the same compound, the concentration at half-maximal activity (AC50) in [3], in assay [4], in assay [5] and in assay [6] was > 30 µM throughout.

Take `Oc1ncnc2[nH]ncc12` [ALLOPURINOL]: the AC50 on Bile salt export pump is > 300 µM; on Adenosine receptor A3 it was > 30 µM; in assay [1], > 30 µM; on Adenosine receptor A1, > 30 µM; in assay [2] it was > 30 µM; at Melanocortin receptor 3, > 30 µM. In addition, the AC50 in assay [3] was > 10 µM; in assay [4] it was > 30 µM; in assay [5], > 10 µM; in assay [6], > 10 µM.

Turning to `CO/N=C(\C(=O)N[C@@H]1C(=O)N2C(C(=O)[O-])=C(C[N+]3(C)CCCC3)CS[C@H]12)c1csc(N)n1`, the half-maximal activity concentration (AC50) (on Bile salt export pump; at Adenosine receptor A3; in [1]; on Adenosine receptor A1; in assay [2]; on Melanocortin receptor 3) was > 300 µM in each case. Further, the concentration at half-maximal activity (AC50) in assay [3], in assay [4], in assay [5] and in assay [6] was > 300 µM throughout.

In the case of `O=C(CCCCCCC(=O)Nc1ccccc1)NO` [VORINOSTAT], the AC50 on Bile salt export pump is > 300 µM; at Adenosine receptor A3, > 30 µM; in [1] it was > 30 µM; at Adenosine receptor A1 it was > 30 µM; in assay [2] it was > 30 µM; at Melanocortin receptor 3, > 30 µM. Also, the AC50 in [3], in assay [4], in [5] and in [6] was > 30 µM each time.

As for `CCc1ccc(CCOc2ccc(CC3SC(=O)NC3=O)cc2)nc1` (centres undefined) [PIOGLITAZONE], the AC50 is 0.1 µM on Bile salt export pump; > 30 µM on Adenosine receptor A3; > 30 µM in assay [1]; > 30 µM at Adenosine receptor A1; > 30 µM in assay [2]; > 30 µM on Melanocortin receptor 3. The results for the AC50 in [4], in [5] and in assay [6] were > 30 µM, > 10 µM and > 10 µM, respectively.

In the case of `CCCS(=O)(=O)Nc1ccc(F)c(C(=O)c2c[nH]c3ncc(-c4ccc(Cl)cc4)cc23)c1F` [VEMURAFENIB], the half-maximal activity concentration (AC50) is 37 µM on Bile salt export pump; 18 µM on Adenosine receptor A3; > 30 µM in assay [1]; > 30 µM at Adenosine receptor A1; > 30 µM in assay [2]; > 30 µM on Melanocortin receptor 3. Also, the AC50 in assay [3], in assay [4], in assay [5] and in assay [6] was > 30 µM throughout.

Consider `CCN(CC)CCNC(=O)c1cc(Cl)c(N)cc1OC` [METOCLOPRAMIDE], for which the concentration at half-maximal activity (AC50) is > 300 µM on Bile salt export pump; > 30 µM at Adenosine receptor A3; > 30 µM in assay [1]; > 30 µM on Adenosine receptor A1; > 30 µM in [2]; > 30 µM on Melanocortin receptor 3. For the same compound, the AC50 in assay [3] was > 10 µM; in [4] it was > 30 µM; in [6], > 10 µM.

`CNC(=O)c1cc(Oc2ccc(NC(=O)Nc3ccc(Cl)c(C(F)(F)F)c3)cc2)ccn1` [SORAFENIB]: the AC50 is 2 µM at Bile salt export pump; 1.88 µM at Adenosine receptor A3; > 30 µM in assay [1]; > 30 µM on Adenosine receptor A1; > 30 µM in assay [2]; 23.2 µM at Melanocortin receptor 3. Also, the AC50 was > 30 µM in [3], 11 µM in assay [4], > 30 µM in [5] and > 30 µM in assay [6].

With `NC(N)=Nc1nc(CSCCC(N)=NS(N)(=O)=O)cs1` [FAMOTIDINE], the concentration at half-maximal activity (AC50) on Bile salt export pump is > 300 µM; on Adenosine receptor A3, > 30 µM; in [1] it was > 30 µM; at Adenosine receptor A1 it was > 30 µM; in assay [2] it was > 30 µM; on Melanocortin receptor 3, > 30 µM. The AC50 in assay [4] was > 30 µM; in assay [5] it was > 10 µM; in [6], > 10 µM.

On to `COc1cc2c(cc1OC)C(=O)C(CC1CCN(Cc3ccccc3)CC1)C2` (centres undefined) [DONEPEZIL], for which the AC50 on Bile salt export pump is > 300 µM; at Adenosine receptor A3 it was > 30 µM; in assay [1] it was > 30 µM; on Adenosine receptor A1, > 30 µM; in [2], > 30 µM; at Melanocortin receptor 3, > 30 µM. Moreover, the figures for the half-maximal activity concentration (AC50) in [3], in assay [4] and in assay [6] were > 10 µM, 15.6 µM and > 10 µM, respectively.

For the compound `Cc1cccc(C)c1OCC(C)N` (centres undefined) [MEXILETINE], the AC50 on Bile salt export pump is > 300 µM; at Adenosine receptor A3, > 30 µM; in [1], > 10 µM; at Adenosine receptor A1 it was > 30 µM; in assay [2], > 30 µM; on Melanocortin receptor 3, > 30 µM. Moreover, the half-maximal activity concentration (AC50) in assay [3], in assay [4] and in [5] was > 30 µM throughout.

`CN1CCCC(n2nc(Cc3ccc(Cl)cc3)c3ccccc3c2=O)CC1` (centres undefined) [AZELASTINE]: the AC50 on Bile salt export pump was > 100 µM; at Adenosine receptor A3, > 30 µM; in [1] it was > 30 µM; at Adenosine receptor A1, > 30 µM; in assay [2], > 30 µM; on Melanocortin receptor 3, > 30 µM. The AC50 in assay [3] was 17 µM; in assay [4], > 30 µM; in assay [6], > 30 µM.

In general, AC50 refers to the concentration giving half of the maximal activity seen.
